Measurements taken from paper PMC6219668 (Oncotarget, 2018).
Like-named read-outs stand apart in the source and are kept apart here.

Assays:
Pfeiffer = experiment: cells; format: cell-based; conditions: Homo sapiens, DLBCL, dominant CDK6, read-out: IC50, mean ± SD
JeKo-1 = experiment: cells; format: cell-based; conditions: Homo sapiens; JeKo-1, MCL, dominant CDK4; read-out: IC50, mean ± SD
TE-10 = experiment: cells; format: cell-based; conditions: Homo sapiens, TE-10, 72 h
HPAX1633 = format: in vivo; conditions: HPAX1633, Pancreatic, Rb present; 250 mg/kg qd
SK-MEL-5 = experiment: cells; format: cell-based; conditions: Homo sapiens, SK-MEL-5, 72 h
TE-11 = experiment: cells; format: cell-based; conditions: Homo sapiens, TE-11, 72 h
VCAP = experiment: cells; format: cell-based; conditions: Homo sapiens, 72 h
A2058 = experiment: cells; format: cell-based; conditions: Homo sapiens, A2058, 72 h
HBCx-12 = format: in vivo; conditions: HBCx-12, Breast, TNBC, Rb present; 125 mg/kg bid × 21
[1] = humans, 600 mg once daily; data not shown; cited from earlier work
OE33 = experiment: cells; format: cell-based; conditions: Homo sapiens, OE33, 72 h
NCI-H3122 [2] = experiment: cells; format: cell-based; conditions: Homo sapiens, NCI-H3122, 72 h
SK-MEL-30 = experiment: cells; format: cell-based; conditions: Homo sapiens, SK-MEL-30, 72 h
KELLY = experiment: cells; format: cell-based; conditions: 72 h
MEL-JUSO = format: in vivo; conditions: Melanoma
HBRX1286 = format: in vivo; conditions: HBRX1286, Breast, TNBC, Rb absent; 250 mg/kg qd
COR-L105 [3] = experiment: cells; format: cell-based; conditions: Homo sapiens, COR-L105, 72 h
SK-MEL-28 = experiment: cells; format: cell-based; conditions: Homo sapiens, SK-MEL-28, 72 h
NCI-H2009 = tested on: NCI-H2009; parameters: method as in Brain C et al, manuscript in preparation; conditions: RB1-deleted lung adenocarcinoma line; up to 10 μM; ref Brain C et al, manuscript in preparation; cited from earlier work
KYSE450 = experiment: cells; format: cell-based; conditions: Homo sapiens, KYSE-450; KYSE450, 72 h
MELJUSO = experiment: cells; format: cell-based; conditions: Homo sapiens, MEL-JUSO, 72 h
NB1 = experiment: cells; format: cell-based; conditions: Homo sapiens, NB1, 72 h
WBCs and ANC = experiment: Blood counts in JeKo-1 rat model; format: in vivo; conditions: all treatment groups compared with vehicle
Text: To further characterize the pharmacokinetic/pharmacodynamic (PK/PD) relationship and simultaneously compare antitumor effects with white blood cell (WBC) counts in host animals, we used the JeKo-1 xenograft model in nude rats. […]. We observed dose-proportional increases in both drug exposure and target inhibition (Supplementary Table 5). […]. This dose-proportional target inhibition correlated with dose-dependent antitumor efficacy in the same JeKo-1 xenograft model.

NCI-H460 = experiment: cells; format: cell-based; conditions: Homo sapiens, NCI-H460, 72 h
MGH051 = experiment: cells; format: cell-based; conditions: MGH051, 72 h
JeKo-1 xenograft = format: in vivo; conditions: for tumor response: qd, po
NCI-H3122 [4] = experiment: cells; format: cell-based; conditions: Homo sapiens, NCI-H3122, 72 h; remark: listed apart in the source
MDA-MB-415 = experiment: cells; format: cell-based; conditions: Homo sapiens, MDA-MB-415, 72 h
Rb phosphorylation = experiment: animal or person; format: in vivo; conditions: Rattus norvegicus, JeKo-1, read-out: ppRb inhibition, range
MCF-7 = experiment: cells; format: cell-based; conditions: Homo sapiens, MCF7; MCF-7, 72 h
NCI-H2228 = experiment: cells; format: cell-based; conditions: Homo sapiens, NCI-H2228, 72 h
T-47d = experiment: cells; format: cell-based; conditions: Homo sapiens, T47D, 72 h
COR-L105 [5] = experiment: cells; format: cell-based; conditions: Homo sapiens, COR-L105, 72 h; remark: listed apart in the source
CDK5/p25 = conditions: cited from earlier work
HBRX1600 = format: in vivo; conditions: HBRX1600, Breast, TNBC, Rb present; 250 mg/kg qd
SNU-761 = experiment: cells; format: cell-based; conditions: SNU-761, 72 h
MGH049 = experiment: cells; format: cell-based; conditions: MGH049, 72 h
hs944T = experiment: cells; format: cell-based; conditions: 72 h
NCI-H441 = experiment: cells; format: cell-based; conditions: Homo sapiens, NCI-H441, 72 h

CC(=O)c1c(C)c2cnc(Nc3ccc(N4CCNCC4)cn3)nc2n(C2CCCC2)c1=O [Palbociclib, reference compound]
IC50 (Pfeiffer): 89 ± 32 µM
IC50 (JeKo-1): 72 ± 33 µM

CN(C)C(=O)c1cc2cnc(Nc3ccc(N4CCNCC4)cn3)nc2n1C1CCCC1 [Ribociclib, 7-cyclopentyl-2-(5-piperazin-1-yl-pyridin-2-ylamino)-7H-pyrrolo[2,3-d]pyrimidine-6-carboxylic acid dimethylamide]
IC50 (TE-10): 1.01 µM
T/C (HPAX1633): 30
IC50 (SK-MEL-5): > 10 µM
IC50 (TE-11): 4.41 µM
IC50 (VCAP): > 10 µM
IC50 (A2058): > 10 µM
T/C (HBCx-12): 33
area under the concentration-time curve [1]: ~22,000 ng/mL × h
maximum serum concentration [1]: ~1700 ng/mL
IC50 (OE33): > 10 µM
IC50 (NCI-H3122 [2]): 2 µM
IC50 (SK-MEL-30): 1 µM
IC50 (KELLY): 0.3 µM
T/C (MEL-JUSO; 75 mg/kg qd): 47
T/C (MEL-JUSO; 150 mg/kg qd): 32
T/C (MEL-JUSO; 250 mg/kg qd): 2
T/C (HBRX1286): 82
IC50 (COR-L105 [3]): 1.92 µM
IC50 (SK-MEL-28): 0.98 µM
effect on cell-cycle progression (NCI-H2009): no effect
IC50 (KYSE450): > 10 µM
IC50 (MELJUSO): 0.89 µM
IC50 (NB1): 1.6 µM
absolute neutrophil counts (WBCs and ANC): reduced
total WBC counts (WBCs and ANC): reduced
IC50 (NCI-H460): 0.62 µM
IC50 (MGH051): > 10 µM
tumor response (JeKo-1 xenograft; 75 mg/kg): complete tumor regression
tumor response (JeKo-1 xenograft; 150 mg/kg): complete tumor regression
tumor growth inhibition (JeKo-1 xenograft; rat, in vivo): 56%
IC50 (NCI-H3122 [4]): 0.51 µM
IC50 (MDA-MB-415): > 10 µM
inhibition at 75 mg/kg (Rb phosphorylation): 75 to 90%
inhibition at 150 mg/kg (Rb phosphorylation): 97 to 100%
IC50 (MCF-7): 0.18 µM
IC50 (NCI-H2228): > 10 µM
IC50 (T-47d): > 10 µM
IC50 (COR-L105 [5]): > 10 µM
activity against CDK5/p25 (CDK5/p25): far less active
T/C (HBRX1600): 28
IC50 (SNU-761): > 10 µM
IC50 (MGH049): > 10 µM
IC50 (hs944T): 1.62 µM
IC50 (NCI-H441): > 10 µM
